Source: the kinase profiling compilation of Christmann-Franck et al. (2016)

Columns and labels:
Assay in all cases: KINOMEscan competition binding
Conditions in all cases: compound 10.0 µM
RPS6KA6 KD1 (human) = RPS6KA6 KD1 (human) (UniProt Q9UK32)
EPHB2 (human) = EPHB2 (human) (UniProt P29323)
STK38 (human) = STK38 (human) (UniProt Q15208)
PKMYT1 (human) = PKMYT1 (human) (UniProt Q99640)
DDR1 (human) = DDR1 (human) (UniProt Q08345)
[1] = system: EGFR (human), P00533 [T790M]
PIK3CD (human) = PIK3CD (human) (UniProt O00329)
FRK (human) = FRK (human) (UniProt P42685)
EPHB4 (human) = EPHB4 (human) (UniProt P54760)
PHKG2 (human) = PHKG2 (human) (UniProt P15735)
HIPK4 (human) = HIPK4 (human) (UniProt Q8NE63)
Sequence of HIPK4 (human) (Q8NE63 whole entry, looked up): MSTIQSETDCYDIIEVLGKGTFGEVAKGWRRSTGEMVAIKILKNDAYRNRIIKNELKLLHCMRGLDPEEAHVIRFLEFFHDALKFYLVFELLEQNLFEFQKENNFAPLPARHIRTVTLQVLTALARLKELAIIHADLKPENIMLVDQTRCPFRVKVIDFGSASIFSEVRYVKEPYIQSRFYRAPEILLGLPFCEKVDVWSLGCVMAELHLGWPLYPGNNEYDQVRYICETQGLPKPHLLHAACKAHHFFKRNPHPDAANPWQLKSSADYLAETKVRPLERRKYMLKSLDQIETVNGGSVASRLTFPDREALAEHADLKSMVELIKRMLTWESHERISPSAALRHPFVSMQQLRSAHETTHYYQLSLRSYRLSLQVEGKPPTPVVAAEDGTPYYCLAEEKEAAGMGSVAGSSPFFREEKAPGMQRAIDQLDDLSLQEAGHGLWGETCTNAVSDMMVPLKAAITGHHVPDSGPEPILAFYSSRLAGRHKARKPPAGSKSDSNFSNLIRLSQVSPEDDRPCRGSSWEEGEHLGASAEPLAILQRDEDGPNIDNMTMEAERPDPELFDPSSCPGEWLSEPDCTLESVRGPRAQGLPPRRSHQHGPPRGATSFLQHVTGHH

STK38L (human) = STK38L (human) (UniProt Q9Y2H1)
Sequence of STK38L (human) (Q9Y2H1 whole entry, looked up): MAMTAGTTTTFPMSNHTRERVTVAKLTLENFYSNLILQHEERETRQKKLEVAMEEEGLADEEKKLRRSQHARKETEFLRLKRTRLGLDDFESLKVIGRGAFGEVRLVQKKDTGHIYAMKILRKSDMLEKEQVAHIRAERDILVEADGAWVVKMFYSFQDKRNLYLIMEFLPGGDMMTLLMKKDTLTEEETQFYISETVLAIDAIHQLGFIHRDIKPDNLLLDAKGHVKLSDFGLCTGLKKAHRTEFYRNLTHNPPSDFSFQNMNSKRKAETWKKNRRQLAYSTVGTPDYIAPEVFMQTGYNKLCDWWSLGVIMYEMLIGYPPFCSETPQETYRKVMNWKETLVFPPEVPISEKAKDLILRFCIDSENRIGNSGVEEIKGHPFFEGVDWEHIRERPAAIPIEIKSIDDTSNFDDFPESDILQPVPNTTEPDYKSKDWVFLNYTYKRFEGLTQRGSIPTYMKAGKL

MAPK1 (human) = MAPK1 (human) (UniProt P28482)
Sequence of MAPK1 (human) (P28482 whole entry, looked up): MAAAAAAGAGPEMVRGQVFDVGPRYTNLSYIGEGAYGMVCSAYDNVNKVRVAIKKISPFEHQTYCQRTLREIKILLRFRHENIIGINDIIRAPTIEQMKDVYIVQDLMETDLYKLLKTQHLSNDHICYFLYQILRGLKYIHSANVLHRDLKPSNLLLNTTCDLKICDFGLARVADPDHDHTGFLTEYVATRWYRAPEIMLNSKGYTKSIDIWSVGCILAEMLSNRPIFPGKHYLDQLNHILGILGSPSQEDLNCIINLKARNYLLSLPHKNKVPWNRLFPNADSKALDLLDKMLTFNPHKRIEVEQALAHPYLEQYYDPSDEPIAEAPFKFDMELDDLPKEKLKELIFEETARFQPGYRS

HCK (human) = HCK (human) (UniProt P08631)
LIMK2 (human) = LIMK2 (human) (UniProt P53671)
Sequence of LIMK2 (human) (P53671 whole entry, looked up): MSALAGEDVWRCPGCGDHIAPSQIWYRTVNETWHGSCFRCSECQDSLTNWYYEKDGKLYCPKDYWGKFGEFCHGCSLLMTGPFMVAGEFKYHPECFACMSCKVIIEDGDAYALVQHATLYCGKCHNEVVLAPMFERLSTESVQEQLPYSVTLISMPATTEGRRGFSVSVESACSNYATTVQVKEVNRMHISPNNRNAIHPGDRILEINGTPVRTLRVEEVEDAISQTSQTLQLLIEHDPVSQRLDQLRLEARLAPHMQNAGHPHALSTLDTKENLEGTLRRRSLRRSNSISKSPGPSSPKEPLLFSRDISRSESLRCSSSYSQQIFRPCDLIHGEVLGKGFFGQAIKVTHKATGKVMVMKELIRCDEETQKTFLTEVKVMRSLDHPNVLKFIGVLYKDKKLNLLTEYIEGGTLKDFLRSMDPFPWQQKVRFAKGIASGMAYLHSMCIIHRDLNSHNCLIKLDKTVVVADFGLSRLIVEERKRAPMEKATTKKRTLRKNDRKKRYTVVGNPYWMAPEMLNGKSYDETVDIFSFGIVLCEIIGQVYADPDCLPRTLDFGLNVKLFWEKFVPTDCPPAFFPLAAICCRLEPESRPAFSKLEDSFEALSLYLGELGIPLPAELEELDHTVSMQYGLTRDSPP

SRPK1 (human) = SRPK1 (human) (UniProt Q96SB4)
Sequence of SRPK1 (human) (Q96SB4 whole entry, looked up): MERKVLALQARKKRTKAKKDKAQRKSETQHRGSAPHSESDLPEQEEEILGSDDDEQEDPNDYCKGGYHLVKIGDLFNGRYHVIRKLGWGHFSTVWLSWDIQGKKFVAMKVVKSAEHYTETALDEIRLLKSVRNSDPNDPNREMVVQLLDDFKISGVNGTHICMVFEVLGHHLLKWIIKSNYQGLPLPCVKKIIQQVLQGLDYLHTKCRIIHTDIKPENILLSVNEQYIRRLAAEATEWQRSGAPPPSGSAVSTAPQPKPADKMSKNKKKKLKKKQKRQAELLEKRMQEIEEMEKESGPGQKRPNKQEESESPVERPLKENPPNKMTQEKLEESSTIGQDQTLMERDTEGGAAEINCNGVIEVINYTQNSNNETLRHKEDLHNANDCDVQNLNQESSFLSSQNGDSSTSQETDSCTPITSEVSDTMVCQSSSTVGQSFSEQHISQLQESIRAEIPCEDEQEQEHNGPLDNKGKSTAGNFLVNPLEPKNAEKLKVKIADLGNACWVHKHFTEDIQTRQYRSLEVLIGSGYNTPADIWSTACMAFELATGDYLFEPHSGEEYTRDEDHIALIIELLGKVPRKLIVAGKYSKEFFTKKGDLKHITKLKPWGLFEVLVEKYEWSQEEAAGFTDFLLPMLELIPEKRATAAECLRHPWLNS

NIM1 (human) = NIM1 (human) (UniProt Q8IY84)
SIK3 (human) = SIK3 (human) (UniProt Q9Y2K2)
MYLK (human) = MYLK (human) (UniProt Q15746)
PRKD3 (human) = PRKD3 (human) (UniProt O94806)
MYLK2 (human) = MYLK2 (human) (UniProt Q9H1R3)
EIF2AK1 (human) = EIF2AK1 (human) (UniProt Q9BQI3)
EPHA1 (human) = EPHA1 (human) (UniProt P21709)
MAPKAPK5 (human) = MAPKAPK5 (human) (UniProt Q8IW41)
AKT3 (human) = AKT3 (human) (UniProt Q9Y243)
ULK2 (human) = ULK2 (human) (UniProt Q8IYT8)
MYLK4 (human) = MYLK4 (human) (UniProt Q86YV6)
RPS6KA4 KD2 (human) = RPS6KA4 KD2 (human) (UniProt O75676)
Sequence of RPS6KA4 KD2 (human) (O75676 whole entry, looked up): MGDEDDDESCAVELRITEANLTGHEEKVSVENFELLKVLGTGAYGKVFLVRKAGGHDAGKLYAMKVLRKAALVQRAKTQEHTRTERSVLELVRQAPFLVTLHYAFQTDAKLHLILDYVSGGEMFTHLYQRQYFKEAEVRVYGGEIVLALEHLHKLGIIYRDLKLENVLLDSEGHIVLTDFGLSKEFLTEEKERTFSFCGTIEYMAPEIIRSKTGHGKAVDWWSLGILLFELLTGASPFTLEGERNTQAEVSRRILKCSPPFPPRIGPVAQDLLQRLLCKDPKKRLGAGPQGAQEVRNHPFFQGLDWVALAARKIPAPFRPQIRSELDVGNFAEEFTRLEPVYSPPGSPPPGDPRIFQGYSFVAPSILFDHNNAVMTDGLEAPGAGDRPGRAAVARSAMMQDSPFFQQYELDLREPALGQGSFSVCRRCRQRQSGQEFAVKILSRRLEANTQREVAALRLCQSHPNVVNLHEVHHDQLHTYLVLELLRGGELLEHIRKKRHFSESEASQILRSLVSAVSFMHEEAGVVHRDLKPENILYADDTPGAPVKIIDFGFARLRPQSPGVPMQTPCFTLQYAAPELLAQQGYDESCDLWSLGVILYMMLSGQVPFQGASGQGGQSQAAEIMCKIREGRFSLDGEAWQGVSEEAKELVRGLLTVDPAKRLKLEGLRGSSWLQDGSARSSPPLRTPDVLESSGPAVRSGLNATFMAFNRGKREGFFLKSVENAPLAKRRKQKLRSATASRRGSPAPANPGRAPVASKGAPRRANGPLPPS

DAPK2 (human) = DAPK2 (human) (UniProt Q9UIK4)
[2] = system: RET (human), P07949 [M918T]
MAP3K6 (human) = MAP3K6 (human) (UniProt O95382)
PIK3C2G (human) = PIK3C2G (human) (UniProt O75747)
PRKG1 (human) = PRKG1 (human) (UniProt Q13976)

Sequence of RPS6KA6 KD1 (human) (Q9UK32 whole entry, looked up): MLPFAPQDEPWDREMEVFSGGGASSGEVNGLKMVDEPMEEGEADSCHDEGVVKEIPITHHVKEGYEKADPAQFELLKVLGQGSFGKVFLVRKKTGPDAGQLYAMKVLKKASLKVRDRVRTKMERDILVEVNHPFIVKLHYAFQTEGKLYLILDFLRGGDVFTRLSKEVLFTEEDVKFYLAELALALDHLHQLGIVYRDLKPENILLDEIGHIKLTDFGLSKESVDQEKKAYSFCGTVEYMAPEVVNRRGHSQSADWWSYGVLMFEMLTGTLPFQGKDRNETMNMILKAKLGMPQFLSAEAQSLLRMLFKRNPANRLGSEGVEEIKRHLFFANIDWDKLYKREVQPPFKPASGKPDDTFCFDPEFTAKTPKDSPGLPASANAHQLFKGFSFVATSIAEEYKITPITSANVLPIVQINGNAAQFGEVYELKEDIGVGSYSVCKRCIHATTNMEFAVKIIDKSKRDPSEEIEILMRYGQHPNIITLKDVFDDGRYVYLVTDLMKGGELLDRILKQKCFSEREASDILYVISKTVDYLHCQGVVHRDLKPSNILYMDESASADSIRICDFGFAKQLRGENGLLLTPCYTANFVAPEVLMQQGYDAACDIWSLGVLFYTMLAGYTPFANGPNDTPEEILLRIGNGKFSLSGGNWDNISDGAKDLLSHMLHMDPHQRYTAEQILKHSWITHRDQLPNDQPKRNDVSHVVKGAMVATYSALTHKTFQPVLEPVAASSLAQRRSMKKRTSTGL
Sequence of PKMYT1 (human) (Q99640 whole entry, looked up): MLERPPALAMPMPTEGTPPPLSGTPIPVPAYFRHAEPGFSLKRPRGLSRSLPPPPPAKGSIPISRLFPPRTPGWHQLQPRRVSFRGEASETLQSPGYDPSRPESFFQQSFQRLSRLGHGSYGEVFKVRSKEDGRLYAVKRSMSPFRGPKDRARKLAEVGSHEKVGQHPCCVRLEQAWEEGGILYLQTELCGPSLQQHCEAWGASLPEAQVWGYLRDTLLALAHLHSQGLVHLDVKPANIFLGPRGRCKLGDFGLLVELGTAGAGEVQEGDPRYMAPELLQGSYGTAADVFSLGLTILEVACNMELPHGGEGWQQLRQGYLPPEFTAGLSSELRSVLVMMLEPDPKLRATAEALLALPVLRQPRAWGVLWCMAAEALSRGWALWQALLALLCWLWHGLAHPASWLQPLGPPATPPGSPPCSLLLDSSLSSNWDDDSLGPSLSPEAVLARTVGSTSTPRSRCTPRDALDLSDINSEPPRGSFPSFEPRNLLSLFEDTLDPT

SMILES	kinase still bound, per cent of control (RPS6KA6 KD1 (human)) [%]	kinase still bound, per cent of control (EPHB2 (human)) [%]	kinase still bound, per cent of control (STK38 (human)) [%]	kinase still bound, per cent of control (PKMYT1 (human)) [%]	kinase still bound, per cent of control (DDR1 (human)) [%]	kinase still bound, per cent of control [1] [%]	kinase still bound, per cent of control (PIK3CD (human)) [%]	kinase still bound, per cent of control (FRK (human)) [%]	kinase still bound, per cent of control (EPHB4 (human)) [%]	kinase still bound, per cent of control (PHKG2 (human)) [%]	kinase still bound, per cent of control (HIPK4 (human)) [%]	kinase still bound, per cent of control (STK38L (human)) [%]	kinase still bound, per cent of control (MAPK1 (human)) [%]	kinase still bound, per cent of control (HCK (human)) [%]	kinase still bound, per cent of control (LIMK2 (human)) [%]	kinase still bound, per cent of control (SRPK1 (human)) [%]	kinase still bound, per cent of control (NIM1 (human)) [%]	kinase still bound, per cent of control (SIK3 (human)) [%]	kinase still bound, per cent of control (MYLK (human)) [%]	kinase still bound, per cent of control (PRKD3 (human)) [%]	other results
O=c1cc(N2CCOCC2)oc2c(-c3cccc4c3sc3ccccc34)cccc12	71	91	100	92	100	100	3.3	91	87	99	74	95	95	100	100	100	100	92	91	100	kinase still bound, per cent of control (MYLK2 (human)): 100%; kinase still bound, per cent of control (EIF2AK1 (human)): 100%; kinase still bound, per cent of control (EPHA1 (human)): 92%; kinase still bound, per cent of control (MAPKAPK5 (human)): 100%; kinase still bound, per cent of control (AKT3 (human)): 98%; kinase still bound, per cent of control (ULK2 (human)): 98%; kinase still bound, per cent of control (MYLK4 (human)): 100%; kinase still bound, per cent of control (RPS6KA4 KD2 (human)): 100%; kinase still bound, per cent of control (DAPK2 (human)): 90%; kinase still bound, per cent of control [2]: 98%; kinase still bound, per cent of control (MAP3K6 (human)): 100%; kinase still bound, per cent of control (PIK3C2G (human)): 16%; kinase still bound, per cent of control (PRKG1 (human)): 100%
CCN1CCN(C(=O)Cc2ccc(Nc3ncc(F)c(Nc4ccc(C(=O)Nc5ccccc5Cl)cc4)n3)cc2)CC1	37	93	70	100	22	13	41	28	76	42	2.4	60	100	84	30	1.9	79	68	57	100	kinase still bound, per cent of control (MYLK2 (human)): 66%; kinase still bound, per cent of control (EIF2AK1 (human)): 66%; kinase still bound, per cent of control (EPHA1 (human)): 27%; kinase still bound, per cent of control (MAPKAPK5 (human)): 100%; kinase still bound, per cent of control (AKT3 (human)): 100%; kinase still bound, per cent of control (ULK2 (human)): 77%; kinase still bound, per cent of control (MYLK4 (human)): 11%; kinase still bound, per cent of control (RPS6KA4 KD2 (human)): 100%; kinase still bound, per cent of control (DAPK2 (human)): 15%; kinase still bound, per cent of control [2]: 0.55%; kinase still bound, per cent of control (MAP3K6 (human)): 86%; kinase still bound, per cent of control (PIK3C2G (human)): 39%; kinase still bound, per cent of control (PRKG1 (human)): 100%
